Experimental data reported in patent publication US20260224716A1, “PTH ANALOGS FOR THE TREATMENT OF HYPOPARATHYROIDISM” (priority 2020, published 2026).
One block for each compound: values may come before it. *1 amine or outer side, *2 acyl side, *3 side chain or, on linkers, in order; H or OH if unused. Where a SMILES comes first, the peptide text is derived from it. Side-chain parts run from the residue outwards. The star is where a group is joined. C18 diacid = O=C(O)CCCCCCCCCCCCCCCCC(=O)*; γGlu = O=C(O)[C@H](CCC(=O)[*:2])N[*:1]; AEEA = NCCOCCOCC(=O)O

How the values were obtained:
[1] = Cleavage half-life / conversion of PTH prodrugs in PBS pH 7.4, 37° C. by LC-MS; type: physicochemical
Protocol: The resulting solution was incubated at 37° C. Aliquots were taken at designed time points and analyzed by LC-MS. […] Flow rate of 1 mL/min and a gradient of 10%-80% acetonitrile in water, with 0.1% trifluoroacetic acid over 10 min. […] The concentration of prodrug and drug were determined by their relative peak areas. The […] dissociation rate constant of the prodrug was determined by plotting the logarithm in the concentration of the prodrug at various time points.

PTHR1 = target: T1, PTHR1 (Homo sapiens, UniProt Q03431); assay: cAMP Hunter Teriparatide Bioassay (CHO-K1 PTHR1 cells); type: cell-based
T1 construct: host or cells: CHO-K1
T1 sequence (Q03431 27-593): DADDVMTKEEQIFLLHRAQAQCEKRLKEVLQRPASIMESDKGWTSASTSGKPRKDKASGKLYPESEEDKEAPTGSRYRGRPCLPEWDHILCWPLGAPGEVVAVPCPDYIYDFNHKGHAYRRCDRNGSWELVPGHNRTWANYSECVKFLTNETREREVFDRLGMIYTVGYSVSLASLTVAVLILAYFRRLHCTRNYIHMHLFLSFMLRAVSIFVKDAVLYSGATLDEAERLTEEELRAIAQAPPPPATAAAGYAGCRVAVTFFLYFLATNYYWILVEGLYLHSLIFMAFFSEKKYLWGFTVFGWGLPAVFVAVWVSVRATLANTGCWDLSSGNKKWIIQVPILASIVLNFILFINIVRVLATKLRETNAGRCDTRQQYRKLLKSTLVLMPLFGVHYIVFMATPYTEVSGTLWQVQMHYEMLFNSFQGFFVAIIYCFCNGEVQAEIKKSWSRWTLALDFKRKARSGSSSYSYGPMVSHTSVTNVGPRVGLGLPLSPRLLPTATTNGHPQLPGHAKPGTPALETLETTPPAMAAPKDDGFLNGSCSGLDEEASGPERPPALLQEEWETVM

- half-life ([1]; PBS buffer, dipeptide cleavage from PTH prodrug, PBS pH 7.4, 37° C., read-out: Half life (converted)): 47 h
- Half life, fold faster (vs SEQ ID NO: 45) ([1]; comparator SEQ ID NO: 45): 1.9 faster than Sar
Compound: CC[C@H](C)[C@H](NC(=O)[C@H](CCC(=O)O)NC(=O)[C@H](CO)NC(=O)[C@@H](NC(=O)[C@H](CO)NC(=O)CN(C(=O)[C@H](N)CCCCNC(=O)CC[C@H](NC(=O)CCCCCCCCCCCCCCCCC(=O)O)C(=O)O)C(C)C)C(C)C)C(=O)N[C@@H](CCC(N)=O)C(=O)N[C@@H](CC(C)C)C(=O)N[C@@H](CCSC)C(=O)N[C@@H](Cc1c[nH]cn1)C(=O)N[C@@H](CC(N)=O)C(=O)N[C@@H](CC(C)C)C(=O)NCC(=O)N[C@@H](CCCCN)C(=O)N[C@@H](Cc1c[nH]cn1)C(=O)N[C@@H](CC(C)C)C(=O)N[C@@H](CC(N)=O)C(=O)N[C@@H](CO)C(=O)N[C@@H](CCSC)C(=O)N[C@@H](CCC(=O)O)C(=O)N[C@@H](CCCNC(=N)N)C(=O)N[C@H](C(=O)N[C@@H](CCC(=O)O)C(=O)N[C@@H](Cc1c[nH]c2ccccc12)C(=O)N[C@@H](CC(C)C)C(=O)N[C@@H](CCCNC(=N)N)C(=O)N[C@@H](CCCCN)C(=O)N[C@@H](CCCCN)C(=O)N[C@@H](CC(C)C)C(=O)N[C@@H](CCC(N)=O)C(=O)N[C@@H](CC(=O)O)C(=O)N[C@H](C(=O)N[C@@H](Cc1c[nH]cn1)C(=O)N[C@@H](CC(N)=O)C(=O)N[C@@H](Cc1ccccc1)C(=O)O)C(C)C)C(C)C [SEQ ID NO: 46]

- Hillslope (PTHR1; FIG. 12): 3.034
- S/B (PTHR1; FIG. 12): 14.2
Compound: CC[C@H](C)[C@H](NC(=O)[C@H](CCC(=O)O)NC(=O)[C@H](CO)NC(=O)[C@@H](NC(=O)[C@@H](N)CO)C(C)C)C(=O)N[C@@H](CCC(N)=O)C(=O)N[C@@H](CC(C)C)C(=O)N[C@@H](CCSC)C(=O)N[C@@H](Cc1c[nH]cn1)C(=O)N[C@@H](CC(N)=O)C(=O)N[C@@H](CC(C)C)C(=O)NCC(=O)N[C@@H](CCCCN)C(=O)N[C@@H](Cc1c[nH]cn1)C(=O)N[C@@H](CC(C)C)C(=O)N[C@@H](CC(N)=O)C(=O)N[C@@H](CO)C(=O)N[C@@H](CC[S+](C)[O-])C(=O)N[C@@H](CCC(=O)O)C(=O)N[C@@H](CCCNC(=N)N)C(=O)N[C@H](C(=O)N[C@@H](CCC(=O)O)C(=O)N[C@@H](Cc1c[nH]c2ccccc12)C(=O)N[C@@H](CC(C)C)C(=O)N[C@@H](CCCNC(=N)N)C(=O)N[C@@H](CCCCN)C(=O)N[C@@H](CCCCN)C(=O)N[C@@H](CC(C)C)C(=O)N[C@@H](CCC(N)=O)C(=O)N[C@@H](CC(=O)O)C(=O)N[C@H](C(=O)N[C@@H](Cc1c[nH]cn1)C(=O)N[C@@H](CCCCNC(=O)CC[C@H](NC(=O)COCCOCCNC(=O)COCCOCCNC(=O)CC[C@H](NC(=O)CCCCCCCCCCCCCCCCC(=O)O)C(=O)O)C(=O)O)C(=O)O)C(C)C)C(C)C (stereo partly shown) [SEQ ID NO: 110]

- Hillslope (PTHR1; FIG. 13A): 1.648
- S/B (PTHR1; FIG. 13A): 9.4
Compound: CC[C@H](C)[C@H](NC(=O)[C@H](CCC(=O)O)NC(=O)[C@H](CO)NC(=O)[C@@H](NC(=O)[C@@H](N)CO)C(C)C)C(=O)N[C@@H](CCC(=O)O)C(=O)N[C@@H](CC(C)C)C(=O)N[C@@H](CCSC)C(=O)N[C@@H](Cc1c[nH]cn1)C(=O)N[C@@H](CC(N)=O)C(=O)N[C@@H](CC(C)C)C(=O)NCC(=O)N[C@@H](CCCCN)C(=O)N[C@@H](Cc1c[nH]cn1)C(=O)N[C@@H](CC(C)C)C(=O)N[C@@H](CC(N)=O)C(=O)N[C@@H](CO)C(=O)N[C@@H](CCSC)C(=O)N[C@@H](CCC(=O)O)C(=O)N[C@@H](CCCNC(=N)N)C(=O)N[C@H](C(=O)N[C@@H](CCC(=O)O)C(=O)N[C@@H](Cc1c[nH]c2ccccc12)C(=O)N[C@@H](CC(C)C)C(=O)N[C@@H](CCCNC(=N)N)C(=O)N[C@@H](CCCCN)C(=O)N[C@@H](CCCCN)C(=O)N[C@@H](CC(C)C)C(=O)N[C@@H](CCC(N)=O)C(=O)N[C@@H](CC(=O)O)C(=O)N[C@H](C(=O)N[C@@H](Cc1c[nH]cn1)C(=O)N[C@@H](CCCCNC(=O)CC[C@H](NC(=O)COCCOCCNC(=O)COCCOCCNC(=O)CC[C@H](NC(=O)CCCCCCCCCCCCCCCCC(=O)O)C(=O)O)C(=O)O)C(=O)O)C(C)C)C(C)C [SEQ ID NO: 118] (H-SVSEIELMHNLGKHLNSMERVEWLRKKLQDVHK([γGlu-AEEA-AEEA-γGlu-C18 diacid])-OH; N-terminus and C-terminus assumed)

- Hillslope (PTHR1; FIG. 13A): 2.804
- S/B (PTHR1; FIG. 13A): 10
Compound: CC[C@H](C)[C@H](NC(=O)[C@H](CCC(=O)O)NC(=O)[C@H](CO)NC(=O)[C@@H](NC(=O)[C@@H](N)CO)C(C)C)C(=O)N[C@@H](CCC(N)=O)C(=O)N[C@@H](CC(C)C)C(=O)N[C@@H](CCSC)C(=O)N[C@@H](Cc1c[nH]cn1)C(=O)N[C@@H](CC(=O)O)C(=O)N[C@@H](CC(C)C)C(=O)NCC(=O)N[C@@H](CCCCN)C(=O)N[C@@H](Cc1c[nH]cn1)C(=O)N[C@@H](CC(C)C)C(=O)N[C@@H](CC(N)=O)C(=O)N[C@@H](CO)C(=O)N[C@@H](CCSC)C(=O)N[C@@H](CCC(=O)O)C(=O)N[C@@H](CCCNC(=N)N)C(=O)N[C@H](C(=O)N[C@@H](CCC(=O)O)C(=O)N[C@@H](Cc1c[nH]c2ccccc12)C(=O)N[C@@H](CC(C)C)C(=O)N[C@@H](CCCNC(=N)N)C(=O)N[C@@H](CCCCN)C(=O)N[C@@H](CCCCN)C(=O)N[C@@H](CC(C)C)C(=O)N[C@@H](CCC(N)=O)C(=O)N[C@@H](CC(=O)O)C(=O)N[C@H](C(=O)N[C@@H](Cc1c[nH]cn1)C(=O)N[C@@H](CCCCNC(=O)CC[C@H](NC(=O)COCCOCCNC(=O)COCCOCCNC(=O)CC[C@H](NC(=O)CCCCCCCCCCCCCCCCC(=O)O)C(=O)O)C(=O)O)C(=O)O)C(C)C)C(C)C [SEQ ID NO: 120] (H-SVSEIQLMHDLGKHLNSMERVEWLRKKLQDVHK([γGlu-AEEA-AEEA-γGlu-C18 diacid])-OH)

- Hillslope (PTHR1; FIG. 13B): 2.522
- S/B (PTHR1; FIG. 13B): 8.2
Compound: CC[C@H](C)[C@H](NC(=O)[C@H](CCC(=O)O)NC(=O)[C@H](CO)NC(=O)[C@@H](NC(=O)[C@@H](N)CO)C(C)C)C(=O)N[C@@H](CCC(N)=O)C(=O)N[C@@H](CC(C)C)C(=O)N[C@@H](CCSC)C(=O)N[C@@H](Cc1c[nH]cn1)C(=O)N[C@@H](CC(N)=O)C(=O)N[C@@H](CC(C)C)C(=O)NCC(=O)N[C@@H](CCCCN)C(=O)N[C@@H](Cc1c[nH]cn1)C(=O)N[C@@H](CC(C)C)C(=O)N[C@@H](CC(=O)O)C(=O)N[C@@H](CO)C(=O)N[C@@H](CCSC)C(=O)N[C@@H](CCC(=O)O)C(=O)N[C@@H](CCCNC(=N)N)C(=O)N[C@H](C(=O)N[C@@H](CCC(=O)O)C(=O)N[C@@H](Cc1c[nH]c2ccccc12)C(=O)N[C@@H](CC(C)C)C(=O)N[C@@H](CCCNC(=N)N)C(=O)N[C@@H](CCCCN)C(=O)N[C@@H](CCCCN)C(=O)N[C@@H](CC(C)C)C(=O)N[C@@H](CCC(N)=O)C(=O)N[C@@H](CC(=O)O)C(=O)N[C@H](C(=O)N[C@@H](Cc1c[nH]cn1)C(=O)N[C@@H](CCCCNC(=O)CC[C@H](NC(=O)COCCOCCNC(=O)COCCOCCNC(=O)CC[C@H](NC(=O)CCCCCCCCCCCCCCCCC(=O)O)C(=O)O)C(=O)O)C(=O)O)C(C)C)C(C)C [SEQ ID NO: 122] (H-SVSEIQLMHNLGKHLDSMERVEWLRKKLQDVHK([γGlu-AEEA-AEEA-γGlu-C18 diacid])-OH; N-terminus and C-terminus assumed)

- Hillslope (PTHR1; FIG. 13B): 1.797
- S/B (PTHR1; FIG. 13B): 8.9
Compound: CC[C@H](C)[C@H](NC(=O)[C@H](CCC(=O)O)NC(=O)[C@H](CO)NC(=O)[C@@H](NC(=O)[C@@H](N)CO)C(C)C)C(=O)N[C@@H](CCC(N)=O)C(=O)N[C@@H](CC(C)C)C(=O)N[C@@H](CCSC)C(=O)N[C@@H](Cc1c[nH]cn1)C(=O)N[C@@H](CC(N)=O)C(=O)N[C@@H](CC(C)C)C(=O)NCC(=O)N[C@@H](CCCCN)C(=O)N[C@@H](Cc1c[nH]cn1)C(=O)N[C@@H](CC(C)C)C(=O)N[C@@H](CC(N)=O)C(=O)N[C@@H](CO)C(=O)N[C@@H](CCSC)C(=O)N[C@@H](CCC(=O)O)C(=O)N[C@@H](CCCNC(=N)N)C(=O)N[C@H](C(=O)N[C@@H](CCC(=O)O)C(=O)N[C@@H](Cc1c[nH]c2ccccc12)C(=O)N[C@@H](CC(C)C)C(=O)N[C@@H](CCCNC(=N)N)C(=O)N[C@@H](CCCCN)C(=O)N[C@@H](CCCCN)C(=O)N[C@@H](CC(C)C)C(=O)N[C@@H](CCC(=O)O)C(=O)N[C@@H](CC(=O)O)C(=O)N[C@H](C(=O)N[C@@H](Cc1c[nH]cn1)C(=O)N[C@@H](CCCCNC(=O)CC[C@H](NC(=O)COCCOCCNC(=O)COCCOCCNC(=O)CC[C@H](NC(=O)CCCCCCCCCCCCCCCCC(=O)O)C(=O)O)C(=O)O)C(=O)O)C(C)C)C(C)C [SEQ ID NO: 124] (H-SVSEIQLMHNLGKHLNSMERVEWLRKKLEDVHK([γGlu-AEEA-AEEA-γGlu-C18 diacid])-OH; N-terminus and C-terminus assumed)

- S/B (PTHR1; FIG. 12): 1.7
Compound: SEQ ID NO: 109: PTH analog site-specifically modified by oxidation to methionine sulfoxide (SVSEIQLXHNLGKHLNSMERVEWLRKKLQDVHX; SITE 8 MISC_FEATURE - Xaa at position 8 is Met wherein the side chain is oxidized to form a sulfoxide; SITE 33 MISC_FEATURE - Xaa at position 33 is Lys wherein the side chain is acylated with COC16H32CO2H via a gamma Glu-(MINIPEG)2-gamma Glu spacer; listed as Homo sapiens)
